Non-standard residues stand in square brackets, D forms with d. No end group written: not given here.
Key:
Assay type in all cases: cell-based, Saccharomyces cerevisiae
[1] = system: S. cerevisiae PB1X-9B(pOPT1); details: ammonium sulfate as nitrogen source; 0.38 μmoles per 6 mm disk; 24-48 hr
Method: (§1) S. cerevisiae PB1X-9B is sensitive to the toxic amino acid ethionine Eth) but is resistant to ethionine containing di-, tri-, tetra-, and pentapeptides. Disk sensitivity assays was utilized to determine if cells transformed with pOPT1 were sensitive to toxic peptides and whether this sensitivity was dependent upon nitrogen source.
(§2) Sensitivity to ethionine, a toxic methionine analog, and ethionine-containing peptides was determined by the method described by Island et al. (1987). Cells were grown overnight to exponential phase of growth in SC, washed, and resuspended at 5×10^6 cells /ml in sterile water. One ml of this cell suspension was added to 3 ml molten Noble agar (0.8% final concentration) and overlayed on 20 ml of the same medium used to prepare the inoculum. A disk (6 mm diameter, Difco) was placed on the plate and 0.38 μmoles of the compounds to be tested were applied to the disks. Zones of inhibition were measured after 24-48 hr incubation at 30 iC. Each test comprised at least three independent assays and the results represented in the Tables are means of the values obtained. Maximum variation between the zones of inhibition measured for each test were ^23 mm. A value of 7 mm for the diameter of zone of inhibition represents a minimal growth inhibition value as the disk diameter was 6 mm. Photodocumentation of sensitivity assays was done with a Umax Scanner and processed through Adobe Photoshop.

[2] = system: S. cerevisiae PB1X-9B; experiment: Sensitivity of untransformed S. cerevisiae PB1X-9B to ethionine and ethionine peptides
Method: as §1
as §2, with “Photodocumentation of sensitivity assays was done with a Umax Scanner and processed through Adobe Photoshop.” left out

[3] = system: S. cerevisiae PB1X-9B(pOPT1); experiment: Peptide transport assay, accumulation of KLG-[3H]L, PB1X-9B(pOPT1)
Method: (§3) To determine if S. cerevisiae transformants harboring pOPT1 could accumulate a radiolabeled tetrapeptide, uptake assays were performed with the radiolabeled substrate KLG-[^3H]L SEQ ID NO:7 with cells grown to log phase in SC-Ura with either ammonium sulfate or 0.1% proline as a nitrogen source. […] This higher initial rate can be explained by overexpression due to high copy number or alternatively by the lack of requisite regulatory elements which may be absent in the heterologous host.
Uptake of KLG-[^3H]L SEQ ID NO:7 was determined using a protocol for uptake of dipeptides as described by Basrai et al. (1995) with a few modifications. S. cerevisiae cultures were grown overnight to exponential phase in SC-Ura medium. Cells were harvested by centrifugation, and resuspended in 2% glucose at a cell density of 2×10^8 cells/ml. Two hundred and fifty microliters of cell suspension were added to an equal volume of an uptake assay reaction mixture and incubated at 30iC. The final concentrations of the components in the uptake assay solution were: glucose (2%, w/v), 10 mM sodium citrate/potassium phosphate buffer (pH 5.0), and KLG-[^3H]L SEQ ID NO:7 (150 μM; 8.5 mCi/mmol). Competition experiments were done in the presence of either 1.5 mM L, KL, KLG, KLLG SEQ ID NO:6, or KLLLG SEQ ID NO:8. At various time points, 90 μl portions were removed and filtered through a membrane. The yeast cells retained on the filter were washed twice with ice-cold distilled water, once with room temperature distilled water, and the residual radioactivity was measured by liquid scintillation. There was no peptide adsorption to the cell surface or sticking to filters since at 0i C the counts were at background level. The uptake results, calculated on the basis of 50% counting efficiency (determined using L-[^3H]lysine as a standard, and the specific activity of the peptide), were expressed as nmol of peptide uptake per minute per mg cell dry weight.

[4] = system: S. cerevisiae PB1X-9B(pRS202); experiment: Peptide transport assay, accumulation of KLG-[3H]L, PB1X-9B(pRS202); details: cells grown in SC with ammonium sulfate; 150 μM substrate
Method: as §3
Uptake of KLG-[^3H]L SEQ ID NO:7 was determined using a protocol for uptake of dipeptides as described by Basrai et al. (1995) with a few modifications. S. cerevisiae cultures were grown overnight to exponential phase in SC-Ura medium. Cells were harvested by centrifugation, and resuspended in 2% glucose at a cell density of 2×10^8 cells/ml. […] The yeast cells retained on the filter were washed twice with ice-cold distilled water, once with room temperature distilled water, and the residual radioactivity was measured by liquid scintillation. […] The uptake results, calculated on the basis of 50% counting efficiency (determined using L-[^3H]lysine as a standard, and the specific activity of the peptide), were expressed as nmol of peptide uptake per minute per mg cell dry weight.

| Compound | zone of growth inhibition [1] | sensitivity / resistance of the strain [2] | uptake rate of KLG-[3H]L, no competitor ([3]; SC-Ura with ammonium sulfate, 150 μM substrate, best fit of slope over 12 min) | initial rate of uptake compared to C. albicans SC5314 ([3]; both grown in SC with ammonium sulfate) | uptake rate of radiolabeled tetrapeptide ([3]; cells grown in SC with ammonium sulfate, 150 μM substrate) | initial uptake rate, PB1X-9B(pOPT1) relative to PB1X-9B(pRS202) ([3]; growth media with proline as nitrogen source) | uptake of radiolabeled tetrapeptide [4] |
| --- | --- | --- | --- | --- | --- | --- | --- |
| CCSCC[C@H](N)C(=O)O [ethionine, Ethionine] | 33 mm | sensitive | – | – | – | – | – |
| Lys-Leu-Gly-[^3H]Leu (KLG[3H‑Leu]) [KLG-[^3H]L] | – | – | 0.24 nm/min/mg of dry weight | higher initial rate of uptake | significant uptake rate | 2.5 times | no uptake |

Source: patent US6441134B1, “Isolated Candida albicans oligopeptide transporter gene” (The University of Tennessee Research Corporation, dated 2002)
